Laboratory results published in patent publication US8043826B2, “Device for monitoring inhibition of platelet function response” (Medical Innovations International, Inc., priority 2005, dated 2011).

System: platelets
Assay: Assaying platelet aspirin response: luciferin/luciferase light emission (extracellular ATP) in arachidonic-acid-treated diluted whole blood drawn before and after taking aspirin
Assay type: cell-based, human
Conditions: individuals of FIGS. 2A and 2C; blood drawn after aspirin 325 mg; no-aspirin sample very steep
Experimental: Volunteers who had not taken aspirin in the previous 24 hours underwent a finger prick to draw blood. Blood (2 μl) was diluted into 1 ml of buffer (PBS, 0.9% NaCl, 10 mM sodium phosphate, pH 7.0) in a clear test tube. An aliquot (15 μl) of luciferin/luciferase solution (containing 10 mg/ml luciferin and 10 μg/ml luciferase) was added to the diluted blood. The solution was mixed and placed in a Zylux FEMPTOMASTER FB12 photon counter. A baseline reading of the light emission was taken. The test tube was then withdrawn, and 5 μl of 15 mM arachidonic acid was added to the solution and the solution was mixed. The test tube was then reinserted in the photon counter and light emission readings were taken for approximately 2 to 4 minutes.
The volunteer then swallowed or chewed an aspirin (325 mg). A blood sample was taken, and the process was repeated. The results from blood drawn from an individual before and after taking aspirin were compared.

SMILES: CC(=O)Oc1ccccc1C(=O)O [aspirin]
- slope of light emission vs. time after arachidonic acid is added, aspirin sample: almost flat
